System: IOP (intra-ocular pressure)
Test: Clinical studies: change from baseline IOP after 20 nL nanodoses of bimatoprost
Format: in vivo, humans
Conditions: ~1 μg BP dosed as 20 nL on Days 0-3; IOP collected ~24 hours post-dose
Method: These IOP (intra-ocular pressure) data were collected ˜24 hours post-dose on each day. […] The Day 5 data shown in FIG. 1 below are the change from baseline IOP values following application of Lumigan.

## CCNC(=O)CCC/C=C\C[C@@H]1[C@@H](/C=C/[C@@H](O)CCc2ccccc2)[C@H](O)C[C@@H]1O [BP, bimatoprost]
  IOP-lowering effect (change from baseline IOP): IOP-lowering effect can occur

Reference: US20130018360A1 (priority 2011, published 2013)
